The results in this text go back to US12459941B2, “Tricyclic IRAK inhibitors” (Rigel Pharmaceuticals, Inc., priority 2022, dated 2025).

One assay has as its target IRAK1 (Homo sapiens, UniProt P51617). The experiment in a line: IRAK1 ADP-Glo Kinase assay. In kind it is biochemical. Particulars: 8 pt curve.
The target of a further assay is T1, IRAK4 (Homo sapiens, UniProt Q9NWZ3).
T1 construct: purchased Signalchem I12-10G-20
T1 sequence (Q9NWZ3 1-460): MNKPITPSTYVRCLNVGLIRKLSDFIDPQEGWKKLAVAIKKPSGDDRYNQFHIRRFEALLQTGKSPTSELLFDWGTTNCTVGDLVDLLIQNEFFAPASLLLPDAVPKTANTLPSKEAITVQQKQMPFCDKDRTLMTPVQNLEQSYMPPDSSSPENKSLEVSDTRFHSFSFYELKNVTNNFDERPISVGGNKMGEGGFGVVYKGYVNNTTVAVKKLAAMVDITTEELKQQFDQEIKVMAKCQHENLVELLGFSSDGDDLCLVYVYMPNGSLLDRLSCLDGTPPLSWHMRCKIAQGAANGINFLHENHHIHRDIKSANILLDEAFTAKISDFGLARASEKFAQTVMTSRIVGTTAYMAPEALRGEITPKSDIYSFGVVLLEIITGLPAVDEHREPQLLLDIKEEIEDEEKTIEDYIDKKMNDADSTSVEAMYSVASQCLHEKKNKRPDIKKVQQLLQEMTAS
Put plainly: IRAK4 ADP-Glo assay. In kind it is biochemical. Particulars: 8 pt curve; read-out: IRAK4 ADP-Glo Kinase, 8 pt. The procedure:
IRAK4 Kinase Enzyme (Signalchem, I12-10G-20); 0.1M DTT (Signalchem, D86-09B); MBP Substrate (Signalchem, M42-51N); ADP Glo (Promega, V9101); 1M MgCl2 (Teknova, M03304); 1M Tris-HCl pH7.4 (Teknova, T1074); BSA (Sigma (A3059); Distilled H2O
Wallac Victor2 1420 Multilabel Counter
The ADP-Glo™ reagents were thawed at ambient temperature. The Kinase Detection Reagent was prepared by mixing kinase detection buffer with the lyophilized kinase detection substrate, and set aside.
A stock volume of 5× Reaction Kinase Buffer was made with a final concentration of 100 mM MgCl2, 200 mM Tris-HCl, and 0.5 mg/ml of BSA, in distilled H2O with a final pH7.4. A 2× working stock volume of Reaction Kinase Buffer was made containing a final concentration of […].
The components of IRAK4 Enzyme were thawed on ice. Diluted IRAK4 in 1× Kinase Reaction Buffer (diluted from 2× buffer) was prepared at […]. A […] working stock ATP Assay Solution was prepared in 1× Kinase Reaction Buffer (diluted from 2× buffer).
The compound was diluted in DMSO from 250 µM in 4-fold series dilutions for 8 points. Then diluted 1:5 in 2× Reaction Buffer in a 96 well plate. 1.01 was transferred to a 384 well plate in duplicate. […] 1 μl of 1 mg/ml stock solution of MBP substrate was added NOTE: MBP can be combined with ATP mix with equal volume and then added at 2 d/well. Final reaction volume was 5 μl.
The plate was centrifuged and the reaction mixture was incubated at room temperature for 60 minutes or at 30° C. for 30 minutes.
The reaction was terminated and the remaining ATP was depleted by adding 5 μl of ADP-Glo™ Reagent. The 384-well plate was centrifuged and then the reaction mixture was incubated for another 40 minutes at ambient temperature.
10 μl of the Kinase Detection Reagent was added. The plate was centrifuged and then the reaction mixture was incubated for another 30 minutes at ambient temperature.
The 384-well reaction plate was read using the WALLAC plate reader (Luminescence 0.1s).

Assay [1] has as its system TNFa. Put plainly: TNFa ELISA, PBMC, Resiquimod (R848) stimulated. In kind it is cell-based. Particulars: 10 pt curve. On the technique in general: In an ELISA, binding on a coated surface is turned into a signal by an enzyme label.
Assay [2] has as its system TNFa. The experiment in a line: TNFa ELISA, THP1-IFNy, LTA stimulated. It is filed as cell-based. The settings on record: 10 pt curve.
Another assay has as its system IL23-p19. The experiment in a line: LPS induced IL23p19 in THP-1 cells (IFNγ primed), sandwich ELISA. In kind it is cell-based. The settings on record: Homo sapiens; THP-1 cells primed with IFNγ, LPS 1 μg/mL, 10 pt curve; read-out: IL23-p19 ELISA, THP1-IFNy, LPS, 10 pt. The source says: LPS Induced IL23p19 in THP-1 Cells (with IFNγ Primed) Assay
THP-1 Cells (ATCC, Cat #TIB-202), Dimethyl Sulfoxide (DMSO) (Sigma-Aldrich, Cat #D2650), RPMI 1640 (Cellgro, Cat #10-040-CM), Fetal Bovine Serum (Sigma, Cat #F4135), Albumin From Bovine Serum (BSA) (Sigma-Aldrich, Cat #A7906), LPS (Serotype K-235, Sigma, Product Number L 2143), IFNγ (Peprotech, Cat #300-02), Capture antibody: Human IL-23p19 ELISA (e-Bioscience, Cat. #14-7238-85), Detection antibody: Primary Mouse Biotinylated anti-human IL-12(p40/p70) (e-Bioscience, Cat. #13-7129-85), Secondary HRP-conjugated Streptavidin (R&D Systems, Cat #DY998), 1×PBST Washing Buffer (PBS-Tween tablet) (VWR International, Cat #80058-558), ELISA Blocking Buffer (PBS with 1% BSA), ELISA Dilution Buffer (PBS with 1% BSA), 384 Well Flat-Bottom, MaxiSorp Black Immuno Plates (Thermo Scientific, Cat #12-565-346), 384 Well Flat-Bottom, White Tissue Culture Plates (Thermo Scientific, Cat #12-565-343), Super Signal ELISA Pico Chemiluminescent Substrate (Thermo Scientific, Cat #37070), Cell Titer Glo reagent (Promega, Cat #G7573), Positive control, IKK2VI inhibitor (Calbiochem, Cat #401483), AquaMax 4000 plate washer (Molecular Devices), Luminometer, Wallac Victor2 1420 Multilabel Counter.
On day 1, 50K/well THP-1 cells were seeded and primed with IFNγ (50 ng/mL) in 384-well plates for about 18 hours in RPMI media with 10% FBS. On day 2, the compound was serially diluted in DMSO from 5 mM in 3-fold dilutions, and then diluted 1:125 in RPMI media with 10% FBS. 50 μL/well 2× compound was added to 50 μL/well THP-1 cells (with IFNγ primed) in duplicate in 384 well tissue culture plates. The cells were pre-incubated with compound for 1 hour at 37° C., 5% CO2 before addition of 10 μL/well 11×LPS to give a final concentration of 1 μg/mL LPS. Day 3, after stimulation for 18 hours at 37° C., 5% CO2, the assay plate was centrifuged and 70 μL/well supernatant was harvested. IL-23p19 protein in 70 μL/well of supernatant was measured by sandwich ELISA, and 25 μl/well Cell Titer Glo reagent was added to the remaining cells to measure compound toxicity.
Human IL-23p19 Sandwich ELISA:
Maxisorp immuno ELISA plates were pre-coated with 25 μL/well of anti-IL-23p19 capture antibody (2.5 ug/mL) in PBS overnight at room temperature. After washing with 1×PBST, the plates were blocked using 100 μL/well of 1% BSA in PBS for 2 hours at room temperature. The plates were washed three times with 1×PBST and 70 μL/well supernatant were added. The plates were incubated at room temperature for 2 hours with shaking and washed three times with 1×PBST. 25 μL/well of biotin labeled anti-IL-12(p40/p70) detection antibody (100 ng/mL) in PBS with 1% BSA was added and the plates were incubated at room temperature for 2 hours with shaking. After washing three times with 1×PBST, 25 μL/well of streptavidin-HRP (1:200) in PBS with 1% BSA was added and the plates were incubated at room temperature for 20 minutes with shaking. The plates were washed three times with 1×PBST and 25 μL/well of Super Signal ELISA Pico Chemiluminescent Substrate were added. The plates were read with a luminometer, and the chemiluminescence values were entered into Athena (Rigel) for curve fitting, EC50 calculation, and database storage.

Assay [3] concerns TNFa. Put plainly: TNFa ELISA, dendritic cells, Gardiquimod stimulated. In kind it is cell-based. Particulars: Homo sapiens, Dendritic cell, 10 pt curve.

Counter-ions that a name gives are not always drawn.

Sequence of IRAK1 (P51617 whole entry): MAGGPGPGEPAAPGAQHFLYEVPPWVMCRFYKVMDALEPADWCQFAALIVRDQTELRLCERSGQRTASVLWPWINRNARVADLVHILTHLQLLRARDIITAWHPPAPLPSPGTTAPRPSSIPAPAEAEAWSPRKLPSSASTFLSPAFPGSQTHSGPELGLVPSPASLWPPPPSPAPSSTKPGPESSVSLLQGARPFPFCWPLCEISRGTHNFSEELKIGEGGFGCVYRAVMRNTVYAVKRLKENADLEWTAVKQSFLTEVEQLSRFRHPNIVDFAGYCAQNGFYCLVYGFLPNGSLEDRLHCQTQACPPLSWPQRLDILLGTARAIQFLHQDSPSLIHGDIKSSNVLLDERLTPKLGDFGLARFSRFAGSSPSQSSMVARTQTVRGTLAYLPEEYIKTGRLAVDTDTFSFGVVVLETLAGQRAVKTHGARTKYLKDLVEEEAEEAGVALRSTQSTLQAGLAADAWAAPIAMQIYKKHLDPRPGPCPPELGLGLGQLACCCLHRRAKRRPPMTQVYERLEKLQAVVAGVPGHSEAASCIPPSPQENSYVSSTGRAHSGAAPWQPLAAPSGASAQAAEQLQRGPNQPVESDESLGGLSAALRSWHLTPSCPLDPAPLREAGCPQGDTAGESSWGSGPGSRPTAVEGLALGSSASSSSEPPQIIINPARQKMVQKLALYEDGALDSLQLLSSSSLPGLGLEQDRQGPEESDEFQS

Regarding `Cc1c[nH]c(=O)c2cc3ccnc(OC[C@@H]4CCC(=O)N4)c3cc12` [I-2, (S)-4-methyl-6-((5-oxopyrrolidin-2-yl)methoxy)pyrido[3,4-g]isoquinolin-1(2H)-one formic acid salt], the IC50 against IRAK1 was 3.84 µM; at IRAK4 it was 0.0067 µM. For the same molecule, the EC50 in the assay with TNFa [1] (formic acid salt) was determined as 0.135 µM; with TNFa [2], 0.274 µM.

Regarding `O=C1CC[C@@H](COc2nccc3cc4c(=O)[nH]cc(C#CCO)c4cc23)N1` [I-21, (S)-4-(3-hydroxyprop-1-yn-1-yl)-6-((5-oxopyrrolidin-2-yl)methoxy)pyrido[3,4-g]isoquinolin-1(2H)-one], the EC50 in the assay on IL23-p19 was found to be 0.778 µM; in the assay with TNFa [3] it was 1.5 µM; in the assay on TNFa [1], 0.422 µM. Moreover, the IC50 stood at 0.777 µM at IRAK1 and 0.0058 µM on IRAK4.

On to `O=C1CC[C@@H](COc2nccc3cc4c(=O)[nH]cc(CCO)c4cc23)N1` [I-22, (S)-4-(2-hydroxyethyl)-6-((5-oxopyrrolidin-2-yl)methoxy)pyrido[3,4-g]isoquinolin-1(2H)-one], for which the EC50 in the assay on IL23-p19 is 6.98 µM; in the assay with TNFa [3] it was 2.01 µM; in the assay with TNFa [1] it was 4.47 µM. Also, the IC50 against IRAK1 was found to be 9.08 µM; at IRAK4, 0.0104 µM.

Consider `NCC#Cc1c[nH]c(=O)c2cc3ccnc(OC[C@@H]4CCC(=O)N4)c3cc12` [I-29, (S)-4-(3-aminoprop-1-yn-1-yl)-6-((5-oxopyrrolidin-2-yl)methoxy)pyrido[3,4-g]isoquinolin-1(2H)-one], for which the EC50 in the assay on IL23-p19 was 14 µM; in the assay on TNFa [3], 9.09 µM; in the assay with TNFa [1], 1.46 µM. The figures for the IC50 against IRAK1 and on IRAK4 were 34.6 µM and 1.43 µM, respectively.
